Experimental data published in the NIST ThermoML archive (doi:10.1016/j.jct.2016.09.026).

Experiments:
[1] = molar heat capacity at constant pressure; conditions: 101.33 kPa, Small sample (50 mg) DSC
[2] = molar enthalpy of vaporization or sublimation; conditions: 341.73 K; Liquid; Static calorimetry
[3] = Crystal
[4] = Molar enthalpy of transition or fusion; conditions: Crystal; DSC

CCCCC(=O)c1ccc(O)cc1 [1-(4-hydroxyphenyl)-1-pentanone]
[1]
Conditions	molar heat capacity at constant pressure [J/K/mol]
288.67 K, Crystal	235
288.92 K, Crystal	235.9
289.17 K, Crystal	235.2
289.42 K, Crystal	236.4
289.67 K, Crystal	236
289.92 K, Crystal	235.3
290.17 K, Crystal	236.5
290.42 K, Crystal	236.3
290.68 K, Crystal	238
290.93 K, Crystal	236.4
291.18 K, Crystal	236.8
291.43 K, Crystal	238
291.68 K, Crystal	237.8
291.93 K, Crystal	236.7
292.18 K, Crystal	237.4
292.43 K, Crystal	238.5
292.68 K, Crystal	239
292.93 K, Crystal	239.6
293.18 K, Crystal	239.6
293.43 K, Crystal	240
293.68 K, Crystal	240.4
293.93 K, Crystal	239.8
294.18 K, Crystal	239.1
294.44 K, Crystal	239.1
294.69 K, Crystal	240.8
294.94 K, Crystal	240.4
295.19 K, Crystal	239.8
295.44 K, Crystal	240.5
295.69 K, Crystal	241.6
295.94 K, Crystal	241.1
296.19 K, Crystal	240.8
296.44 K, Crystal	242.1
296.69 K, Crystal	241.7
296.94 K, Crystal	241.2
297.19 K, Crystal	241.5
297.44 K, Crystal	242.2
297.69 K, Crystal	241.6
297.94 K, Crystal	242.5
298.19 K, Crystal	242.7
298.44 K, Crystal	242.8
298.69 K, Crystal	241.8
298.94 K, Crystal	242.3
299.19 K, Crystal	242.3
299.44 K, Crystal	242.2
299.69 K, Crystal	242.9
299.94 K, Crystal	244.1
300.19 K, Crystal	244.9
300.44 K, Crystal	244.3
300.69 K, Crystal	244.4
300.94 K, Crystal	244.7
301.19 K, Crystal	244.5
301.44 K, Crystal	243.4
301.69 K, Crystal	244.2
301.94 K, Crystal	244.9
302.19 K, Crystal	245.3
302.44 K, Crystal	245.1
302.69 K, Crystal	244.8
302.94 K, Crystal	245.6
303.19 K, Crystal	246.4
303.44 K, Crystal	246.5
303.69 K, Crystal	247
303.94 K, Crystal	247.4
304.19 K, Crystal	247.3
304.44 K, Crystal	247.5
304.69 K, Crystal	246.8
304.94 K, Crystal	246.8
305.19 K, Crystal	247.1
305.44 K, Crystal	248.1
305.69 K, Crystal	247.8
305.94 K, Crystal	247.5
306.19 K, Crystal	247.7
306.44 K, Crystal	248.9
306.69 K, Crystal	248.8
306.94 K, Crystal	249.6
307.19 K, Crystal	250.4
307.44 K, Crystal	250.1
307.69 K, Crystal	250.1
307.94 K, Crystal	249.4
308.19 K, Crystal	249.7
308.44 K, Crystal	250.1
308.69 K, Crystal	249.7
308.94 K, Crystal	250.3
309.19 K, Crystal	250.8
309.44 K, Crystal	251.7
309.69 K, Crystal	252.9
309.94 K, Crystal	251.9
310.19 K, Crystal	253.2
310.44 K, Crystal	253.8
310.69 K, Crystal	253.1
310.94 K, Crystal	253.2
311.19 K, Crystal	252.6
311.44 K, Crystal	252.4
311.69 K, Crystal	253.1
311.94 K, Crystal	252.2
312.19 K, Crystal	252.8
312.44 K, Crystal	252.4
312.69 K, Crystal	253.6
312.94 K, Crystal	254
313.19 K, Crystal	253.3
313.44 K, Crystal	254.6
313.69 K, Crystal	255.2
313.94 K, Crystal	255
314.19 K, Crystal	255.4
314.44 K, Crystal	256.5
314.69 K, Crystal	256.9
314.94 K, Crystal	256.1
315.19 K, Crystal	256
315.44 K, Crystal	255.8
315.69 K, Crystal	255.8
315.94 K, Crystal	256
316.19 K, Crystal	256.4
316.44 K, Crystal	256.4
316.69 K, Crystal	257.2
316.94 K, Crystal	258
317.19 K, Crystal	257.2
317.44 K, Crystal	257.6
317.69 K, Crystal	257.8
317.94 K, Crystal	257.4
318.19 K, Crystal	257
318.44 K, Crystal	258.3
318.69 K, Crystal	258.9
318.94 K, Crystal	259.1
319.19 K, Crystal	260.1
319.44 K, Crystal	259.4
319.69 K, Crystal	260.1
319.94 K, Crystal	259.7
320.19 K, Crystal	259.7
320.44 K, Crystal	260.3
320.69 K, Crystal	260.6
320.94 K, Crystal	261.2
321.19 K, Crystal	261.4
321.44 K, Crystal	260.7
321.69 K, Crystal	260.9
321.94 K, Crystal	260.9
322.19 K, Crystal	261.4
322.44 K, Crystal	262.1
322.69 K, Crystal	262.7
322.94 K, Crystal	262.6
323.19 K, Crystal	263.3
323.44 K, Crystal	263.3
323.69 K, Crystal	262.8
323.94 K, Crystal	263
324.19 K, Crystal	264.1
324.44 K, Crystal	264.2
324.69 K, Crystal	264.3
324.94 K, Crystal	265.1
325.19 K, Crystal	265.2
325.44 K, Crystal	265.1
325.69 K, Crystal	265.8
325.94 K, Crystal	266.1
326.19 K, Crystal	266.1
326.44 K, Crystal	267.6
326.69 K, Crystal	267.8
326.94 K, Crystal	267.5
327.19 K, Crystal	267.3
327.44 K, Crystal	267.7
327.69 K, Crystal	268.3
327.94 K, Crystal	268.4
328.19 K, Crystal	268.9
328.44 K, Crystal	269.8
328.69 K, Crystal	269.8
328.94 K, Crystal	270.3
329.19 K, Crystal	270.3
329.44 K, Crystal	272
329.69 K, Crystal	273.2
329.94 K, Crystal	272.8
330.19 K, Crystal	273.6
330.44 K, Crystal	273.2
330.69 K, Crystal	275.7
330.94 K, Crystal	275.7
331.19 K, Crystal	277.6
331.44 K, Crystal	277.9
331.69 K, Crystal	278.6
331.94 K, Crystal	280.4
332.19 K, Crystal	281.8
332.44 K, Crystal	283.8
332.69 K, Crystal	285.5
332.94 K, Crystal	287.6
333.19 K, Crystal	291.7
333.44 K, Crystal	295.7
340.69 K, Liquid	393.2
340.94 K, Liquid	373.9
341.19 K, Liquid	368.2
341.44 K, Liquid	365.9
341.69 K, Liquid	367
341.94 K, Liquid	367.1
342.19 K, Liquid	366.1
342.44 K, Liquid	366.4
342.69 K, Liquid	368.5
342.94 K, Liquid	384.8
343.19 K, Liquid	386
343.44 K, Liquid	368.7
343.69 K, Liquid	364.2
343.94 K, Liquid	364.3
344.19 K, Liquid	364.4
344.44 K, Liquid	365
344.69 K, Liquid	366.8
344.94 K, Liquid	368.6
345.19 K, Liquid	369.5
345.44 K, Liquid	369.4
345.69 K, Liquid	370.7
345.94 K, Liquid	371
346.19 K, Liquid	371
346.44 K, Liquid	370.7
346.69 K, Liquid	371
346.94 K, Liquid	372.4
347.19 K, Liquid	373.1
347.44 K, Liquid	372.8
347.69 K, Liquid	373.7
347.94 K, Liquid	374
348.19 K, Liquid	373.1
348.44 K, Liquid	372.9
348.69 K, Liquid	371.8
348.94 K, Liquid	372
349.19 K, Liquid	373
349.44 K, Liquid	374.4
349.69 K, Liquid	374.8
349.94 K, Liquid	374
350.19 K, Liquid	374.1
350.44 K, Liquid	375.3
350.69 K, Liquid	374.9
350.94 K, Liquid	373.9
351.19 K, Liquid	375
351.44 K, Liquid	376.6
351.68 K, Liquid	375.6
351.93 K, Liquid	376.3

Conditions	Molar enthalpy of transition or fusion [kcal/mol]	molar enthalpy [kcal/mol]
[2]	–	22.96
[4]	6.15	–

Conditions	mass density [kg/m3]
[3], 298 K, 101.33 kPa, X-ray diffraction	1204.5

Conditions	Normal melting temperature [°C]
[3], DTA	61.1
